# In the supplement of paper PMC13380429:
# How the values were obtained:
# Conditions in all cases: 72 h
# Caco-2 [1] = test: cell viability relative to DMSO; higher = less toxic
# Calu-3 [2] = test: as above
# HepG2 [3] = test: as above
# U2OS [4] = test: as above
# Vero E6 [5] = test: as above
# Caco-2 [6] = test: relative viability EC50 (midpoint between 100% and the lowest measured viability); higher = less toxic
# Calu-3 [7] = test: as above
# HepG2 [8] = test: as above
# U2OS [9] = test: as above
# Vero E6 [10] = test: as above
# Caco-2 [11] = test: drug sensitivity score (DSS) for viability; higher = more toxic; extreme values may be limits of the assay
# Calu-3 [12] = test: as above
# HepG2 [13] = test: as above
# U2OS [14] = test: as above
# Vero E6 [15] = test: as above
Structure (SMILES),cell viability (Caco-2 [1]; 1 nM) [%],cell viability (Caco-2 [1]; 10 nM) [%],cell viability (Caco-2 [1]; 100 nM) [%],cell viability (Caco-2 [1]; 1000 nM) [%],cell viability (Caco-2 [1]; 10000 nM) [%],cell viability (Calu-3 [2]; 1 nM) [%],cell viability (Calu-3 [2]; 10 nM) [%],cell viability (Calu-3 [2]; 100 nM) [%],cell viability (Calu-3 [2]; 1000 nM) [%],cell viability (Calu-3 [2]; 10000 nM) [%],cell viability (HepG2 [3]; 1 nM) [%],cell viability (HepG2 [3]; 10 nM) [%],cell viability (HepG2 [3]; 100 nM) [%],cell viability (HepG2 [3]; 1000 nM) [%],cell viability (HepG2 [3]; 10000 nM) [%],cell viability (U2OS [4]; 1 nM) [%],cell viability (U2OS [4]; 10 nM) [%],cell viability (U2OS [4]; 100 nM) [%],cell viability (U2OS [4]; 1000 nM) [%],cell viability (U2OS [4]; 10000 nM) [%],cell viability (Vero E6 [5]; 1 nM) [%],cell viability (Vero E6 [5]; 10 nM) [%],cell viability (Vero E6 [5]; 100 nM) [%],cell viability (Vero E6 [5]; 1000 nM) [%],cell viability (Vero E6 [5]; 10000 nM) [%],relative viability EC50 (Caco-2 [6]) [µM],relative viability EC50 (Calu-3 [7]) [µM],relative viability EC50 (HepG2 [8]) [µM],relative viability EC50 (U2OS [9]) [µM],relative viability EC50 (Vero E6 [10]) [µM],drug sensitivity score (Caco-2 [11]),drug sensitivity score (Calu-3 [12]),drug sensitivity score (HepG2 [13]),drug sensitivity score (U2OS [14]),drug sensitivity score (Vero E6 [15])
CN(C)c1ccc(/C=C2\CCCN=C2c2cccnc2)cc1 [DMAB-anabaseine],103,107,103,120,76.2,101,109,139,105,88.8,109,90.2,98.2,99.7,87.4,94.2,96.4,97.4,94.4,93.6,105,92.4,99.3,93.5,91.5,> 10,> 10,> 10,> 10,> 10,0.4,0,0.1,0,0
CS(=O)(=O)c1ccc(-c2cc(Br)sc2-c2ccc(F)cc2)cc1 [DUP-697],110,95.1,102,104,88.2,97.2,98,103,112,114,103,107,105,104,79.5,103,98.1,103,105,104,95.6,101,93.4,96.5,97.8,> 10,> 10,> 10,> 10,> 10,0,0,0.4,0,0
COc1c(C)cnc(Cn2cc(C#CCC(C)(C)O)c3c(Cl)nc(N)nc32)c1C [EC-144],105,97.3,88.8,33.1,39.9,104,108,84.3,39.4,49.5,96.4,103,32.3,1.2,1.3,110,107,94.5,9.2,3.5,99.3,102,105,37.3,32.8,0.189,0.152,0.0735,0.319,0.413,14.2,13.6,25.6,17.3,11.3
"CCOC(=O)c1ncn2c1[C@@H]1CCCN1C(=O)c1cc(OC)ccc1-2 [L-655,708]",97.8,95.8,118,95.1,107,101,88,96.3,96.7,105,90.7,100,104,98.7,106,100,98.9,97.5,99.2,104,94.6,95,92.3,97.9,111,> 10,> 10,> 10,> 10,> 10,0,0,0,0,0
NCCCC[C@H](N)C(=O)O [L-lysine],110,102,96.8,86,106,92.7,102,106,97.7,105,111,102,103,93.2,114,103,96.7,101,97.5,99.5,108,106,99.6,98.8,104,> 10,> 10,> 10,> 10,> 10,0,0,0,0,0
O=C(O)C[C@H]1CC[C@H](c2ccc(-c3ccc(Nc4ccc(C(F)(F)F)nc4)cn3)cc2)CC1 [LCQ908],104,102,98.3,100,92.4,92.1,103,95,95.7,95.5,99.4,102,108,93.5,99.8,95.7,102,97,102,90.5,105,104,103,100,104,> 10,> 10,> 10,> 10,> 10,0,0,0,0,0
COc1cccc(-c2ccc([C@@H](Oc3cc(-c4ccc(C[C@H](N)C(=O)O)cc4)nc(N)n3)C(F)(F)F)cc2)c1 [LX1031],91.5,96.7,94.1,92.9,101,99.3,98.2,102,97.3,103,111,100,111,99.3,102,96.4,93.4,95.2,102,99.9,105,89.6,101,98.8,106,> 10,> 10,> 10,> 10,> 10,0,0,0,0,0
